In ChEMBL document CHEMBL5352410, “Discovery of novel selenium-containing azole derivatives as antifungal agents by exploiting the hydrophobic cleft of CYP51” (Eur J Med Chem, 2022):
Converted amounts (≈) assume the structure as drawn.

Experiments:
[1] = Subacute toxicity in water diet-fed Kunming mouse assessed as effect on kidney at 100 to 200 mg/kg, IG measured after 7 to 14 days by microscopic analysis; format: organism-based; conditions: in vivo, po, dose lower 100 mg/kg, time lower 7 day, dose upper 200 mg/kg, time upper 14 day
[2] = tested on: Candida albicans; experiment: Antifungal activity against FCZ-resistant Candida albicans CaR by CLSI based broth microdilution method; format: functional
[3] = biological target: T1, Lanosterol 14-alpha demethylase (Candida albicans (strain SC5314 / ATCC MYA-2876) (Yeast), UniProt P10613); experiment: Inhibition of CYP51 of Candida albicans ATCC SC5314 assessed as increase in obtusifoliol level at 1 ug/ml incubated for 16 hrs by GC-MS analysis (reference value: 0 %); design: scale not given: the % may be the effect or the level left; conditions: at 1 µg/mL
[4] = tested on: Candida albicans; experiment: Fungicidal activity against FCZ-resistant Candida albicans 17#; format: functional
[5] = tested on: Candida albicans; experiment: Antibiofilm activity against Candida albicans CPCC400616 assessed as sessile minimum inhibitory concentration measured after 24 hrs by XTT assay; format: functional
[6] = tested on: Candida albicans; experiment: Antibiofilm activity against Candida albicans SC5314 assessed as sessile minimum inhibitory concentration measured after 1.5 hrs by XTT assay; format: functional
[7] = biological target: T1, Lanosterol 14-alpha demethylase; experiment: Inhibition of CYP51 of Candida albicans ATCC SC5314 assessed as increase in lanosterol level at 8 ug/ml incubated for 16 hrs by GC-MS analysis (reference value: 1.7 %); design: scale not given: the % may be the effect or the level left; conditions: at 8 µg/mL
[8] = tested on: Candida albicans; experiment: Fungicidal activity against FCZ-resistant Candida albicans CaR; format: functional
[9] = Cytotoxicity against human MDA-MB-231 cells by MTT assay; format: toxicity, cell-based
[10] = Acute toxicity in water diet-fed Kunming mouse assessed as animal death at 500 mg/kg, IG measured for 7 days; format: organism-based; conditions: in vivo, po, 168 h, time 7 day
[11] = tested on: Candida albicans; experiment: Antifungal activity against FCZ-resistant Candida albicans 632 by CLSI based broth microdilution method; format: functional
[12] = Subacute toxicity in water diet-fed Kunming mouse assessed as focal necrosis in liver at 100 to 200 mg/kg, IG measured after 7 to 14 days by microscopic analysis; format: organism-based; conditions: in vivo, po, dose lower 100 mg/kg, time lower 7 day, dose upper 200 mg/kg, time upper 14 day
[13] = Cytotoxicity against human PC-3 cells by MTT assay; format: toxicity, cell-based
[14] = biological target: T1, Lanosterol 14-alpha demethylase; experiment: Inhibition of CYP51 of Candida albicans ATCC SC5314 assessed as increase in eburicol level at 4 ug/ml incubated for 16 hrs by GC-MS analysis (reference value: 0 %); design: scale not given: the % may be the effect or the level left; conditions: at 4 µg/mL

T1 sequence (P10613 whole entry): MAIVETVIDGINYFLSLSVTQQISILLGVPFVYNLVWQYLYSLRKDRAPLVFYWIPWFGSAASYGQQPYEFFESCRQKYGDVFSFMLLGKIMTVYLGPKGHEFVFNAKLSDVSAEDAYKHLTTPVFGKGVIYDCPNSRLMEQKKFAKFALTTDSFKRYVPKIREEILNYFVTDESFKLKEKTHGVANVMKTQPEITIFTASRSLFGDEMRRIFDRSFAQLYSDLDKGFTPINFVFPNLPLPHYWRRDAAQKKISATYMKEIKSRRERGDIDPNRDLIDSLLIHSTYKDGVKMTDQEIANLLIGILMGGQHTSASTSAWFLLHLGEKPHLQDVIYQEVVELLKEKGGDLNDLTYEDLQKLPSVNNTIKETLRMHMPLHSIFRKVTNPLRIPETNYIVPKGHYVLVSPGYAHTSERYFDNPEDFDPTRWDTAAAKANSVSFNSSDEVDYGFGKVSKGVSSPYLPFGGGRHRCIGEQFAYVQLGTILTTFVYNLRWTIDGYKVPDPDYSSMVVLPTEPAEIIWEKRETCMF

In the case of `Clc1ccc(C(Cn2ccnc2)[Se][Se]C(Cn2ccnc2)c2ccc(Cl)cc2Cl)c(Cl)c1` (stereo unspecified), the Activity [1] is reported as “Toxic”, the MIC [2] is reported as 2 µg/mL (≈ 3.13 µM) and the Activity [3] is reported as 6.4%. For the same compound, the MFC [4] was over 64 µg/mL, the MIC50 [5] was 4 µg/mL (≈ 6.27 µM) and the MIC80 [5] was 4 µg/mL (≈ 6.27 µM). It also gave an MIC50 [6] of 0.5 µg/mL (≈ 0.784 µM), an MIC80 [6] of 4 µg/mL (≈ 6.27 µM) and an Activity [7] of 16.7%. The MFC [8] was 16 µg/mL (≈ 25.1 µM), the IC50 [9] was 6.25 µM and the Activity [10] was “Non-Toxic”. The MIC [11] was 4 µg/mL (≈ 6.27 µM), the Activity [12] was “Toxic” and the IC50 [13] was 1.43 µM. For the same compound, the Activity [14] was 69.5%.
